Experimental data: patent US10544148B2, “Pesticidally active tetracyclic heterocyclic derivatives with sulphur containing substituents” (Syngenta Participations AG, priority 2014, dated 2020)

Assays:
Assay type in all cases: in vivo
[1] = tested on: Diabrotica balteata (Corn Root Worm); experiment: Example B2: Diabrotica balteata, sprayed maize sprouts, L2 larvae; conditions: 96 h, application rate of 200 ppm, 4 days after infestation
Description: Example B2: Diabrotica balteata (Corn Root Worm)
Maize sprouts, placed on an agar layer in 24-well microtiter plates were treated with aqueous test solutions prepared from 10′000 ppm DMSO stock solutions by spraying. After drying, the plates were infested with L2 larvae (6 to 10 per well). The samples were assessed for mortality and growth inhibition in comparison to untreated samples 4 days after infestation.

[2] = tested on: Plutella xylostella (Diamond Back Moth); experiment: Example B6: Plutella xylostella, treated artificial diet, L2 larvae; conditions: 120 h, application rate of 200 ppm, 5 days after infestation, read-out: effect in at least one of the two categories (mortality or growth inhibition)
Description: Example B6: Plutella xylostella (Diamond Back Moth)
24-well microtiter plates with artificial diet were treated with aqueous test solutions prepared from 10′000 ppm DMSO stock solutions by pipetting. After drying, the plates were infested with L2 larvae (10 to 15 per well). The samples were assessed for mortality and growth inhibition in comparison to untreated samples 5 days after infestation.

[3] = tested on: Spodoptera littoralis (Egyptian Cotton Leaf Worm); experiment: Example B7: Spodoptera littoralis, sprayed cotton leaf discs, L1 larvae; conditions: foliar, 72 h, application rate of 200 ppm, 3 days after infestation, read-out: control (at least one of mortality, anti-feedant effect, and growth inhibition)
Description: Example B7: Spodoptera littoralis (Egyptian Cotton Leaf Worm)
Cotton leaf discs were placed on agar in 24-well microtiter plates and sprayed with aqueous test solutions prepared from 10′000 ppm DMSO stock solutions. After drying the leaf discs were infested with five L1 larvae. The samples were assessed for mortality, anti-feedant effect, and growth inhibition in comparison to untreated samples 3 days after infestation. Control of Spodoptera littoralis by a test sample is when at least one of mortality, anti-feedant effect, and growth inhibition is higher than the untreated sample.

[4] = tested on: Tetranychus urticae (Two-Spotted Spider Mite); experiment: Example B9: Tetranychus urticae, sprayed bean leaf discs, mixed population; conditions: foliar, 192 h
Description: Example B9: Tetranychus urticae (Two-Spotted Spider Mite)
Bean leaf discs on agar in 24-well microtiter plates were sprayed with aqueous test solutions prepared from 10′000 ppm DMSO stock solutions. After drying the leaf discs were infested with a mite population of mixed ages. The samples were assessed for mortality on mixed population (mobile stages) 8 days after infestation.

[5] = tested on: Euschistus heros (Neotropical Brown Stink Bug); experiment: Example B3: Euschistus heros, sprayed soybean leaf, N-2 nymphs; conditions: 120 h, application rate of 200 ppm, 5 days after infestation, read-out: effect in at least one of the two categories (mortality or growth inhibition)
Description: Example B3: Euschistus heros (Neotropical Brown Stink Bug)
Soybean leaf on agar in 24-well microtiter plates were sprayed with aqueous test solutions prepared from 10′000 ppm DMSO stock solutions. After drying the leaf were infested with N-2 nymphs. The samples were assessed for growth inhibition in comparison to untreated samples 5 days after infestation.

[6] = tested on: Frankliniella occidentalis (Western Flower Thrips); experiment: Example B4: Frankliniella occidentalis, sprayed sunflower leaf discs, mixed ages; conditions: foliar, 168 h, application rate of 200 ppm, population of mixed ages, 7 days after infestation
Description: Example B4: Frankliniella occidentalis (Western Flower Thrips)
Sunflower leaf discs were placed on agar in 24-well microtiter plates and sprayed with aqueous test solutions prepared from […] stock solutions. After drying the leaf discs were infested with a Frankliniella population of mixed ages. The samples were assessed for mortality 7 days after infestation.

[7] = tested on: Myzus persicae (Green Peach Aphid); experiment: Example B5: Myzus persicae, sprayed sunflower leaf discs, mixed ages; conditions: foliar, 144 h, application rate of 200 ppm, aphid population of mixed ages, 6 days after infestation
Description: Example B5: Myzus persicae (Green Peach Aphid)
Sunflower leaf discs were placed on agar in a 24-well microtiter plate and sprayed with aqueous test solutions prepared from 10′000 ppm DMSO stock solutions. After drying, the leaf discs were infested with an aphid population of mixed ages. The samples were assessed for mortality 6 days after infestation.

[8] = tested on: Bemisia tabaci (Cotton White fly); experiment: Example B1: Bemisia tabaci, sprayed cotton leaf discs, adult mortality; conditions: foliar, 144 h, application rate of 200 ppm, adult white flies, 6 days after incubation
Description: Example B1: Bemisia tabaci (Cotton White fly)
Cotton leaf discs were placed on agar in 24-well microtiter plates and sprayed with aqueous test solutions prepared from 10′000 ppm DMSO stock solutions. After drying the leaf discs were infested with adult white flies. The samples were checked for mortality 6 days after incubation.

[9] = tested on: Spodoptera littoralis (Egyptian Cotton Leaf Worm); experiment: Example B8: Spodoptera littoralis, systemic test, compound in agar taken up by lettuce roots; conditions: 144 h, test rate of 12.5 ppm, systemic via lettuce roots, 6 days after infestation, read-out: effect in at least one of the three categories (mortality, anti-feedancy, or growth inhibition)
Description: Example B8: Spodoptera littoralis (Egyptian Cotton Leaf Worm)
Test compounds were applied by pipette from 10′000 ppm DMSO stock solutions into 24-well plates and mixed with agar. Lettuce seeds were placed on the agar and the multi well plate was closed by another plate which contains also agar. After 7 days the roots have absorbed the compound and the lettuce has grown into the lid plate. The lettuce leafs were now cut off into the lid plate. Spodoptera eggs were pipetted through a plastic stencil on a humid gel blotting paper and the plate closed with it. The samples were assessed for mortality, anti-feedant effect and growth inhibition in comparison to untreated samples 6 days after infestation.

[10] = tested on: Thrips tabaci (Onion Thrips); experiment: Example B10: Thrips tabaci, sprayed sunflower leaf discs, mixed ages; conditions: foliar, 144 h, application rate of 200 ppm, thrips population of mixed ages, 6 days after infestation
Description: Example B10: Thrips tabaci (Onion Thrips)
Sunflower leaf discs were placed on agar in 24-well microtiter plates and sprayed with aqueous test solutions prepared from 10′000 ppm DMSO stock solutions. After drying the leaf discs were infested with a thrips population of mixed ages. The samples were assessed for mortality 6 days after infestation.

CCSc1cc(-c2ccc(C(F)(F)F)cc2)ccc1-c1nc2cc(C(F)(F)F)nnc2n1C [P4, 6-[2-ethylsulfanyl-4-[4-(trifluoromethyl)phenyl]phenyl]-7-methyl-3-(trifluoromethyl)imidazo[4,5-c]pyridazine]
≥ 80%: mortality at 200 ppm [1] | percent effect (mortality or growth inhibition) at 200 ppm [2] | mortality at 200 ppm [3]

CCS(=O)(=O)c1cc(-c2ccc(C(F)(F)F)cc2)ccc1-c1nc2cc(C(F)(F)F)nnc2n1C [P5]
≥ 80%: mortality at 200 ppm [1] | percent effect (mortality or growth inhibition) at 200 ppm [2] | mortality at 200 ppm [3] | mortality at 200 ppm [4]

CCS(=O)(=O)c1cc(-c2ccc(C(F)(F)F)cc2)cnc1-c1nc2cc(C(F)(F)F)nnc2n1C [P3]
≥ 80%: mortality at 200 ppm [1] | percent effect (mortality or growth inhibition) at 200 ppm [5] | mortality at 200 ppm [6] | mortality at 200 ppm [7] | percent effect (mortality or growth inhibition) at 200 ppm [2] | mortality at 200 ppm [3]

CCS(=O)(=O)c1cc(-c2cc(F)cc(F)c2)cnc1-c1nc2cc(C(F)(F)F)nnc2n1C [P1, 6-[5-(3,5-difluorophenyl)-3-ethylsulfonyl-2-pyridyl]-7-methyl-3-(trifluoromethyl)imidazo[4,5-c]pyridazine]
≥ 80%: mortality at 200 ppm [8] | mortality at 200 ppm [1] | percent effect (mortality or growth inhibition) at 200 ppm [5] | mortality at 200 ppm [6] | mortality at 200 ppm [7] | percent effect (mortality or growth inhibition) at 200 ppm [2] | mortality at 200 ppm [3] | percent control (mortality, anti-feedancy or growth inhibition) at 12.5 ppm [9] | mortality at 200 ppm [10]

CCS(=O)(=O)c1cc(-n2ccc(C(F)(F)F)n2)cnc1-c1nc2cc(C(F)(F)F)nnc2n1C [P2, 6-[3-ethylsulfonyl-5-[3-(trifluoromethyl)pyrazol-1-yl]-2-pyridyl]-7-methyl-3-(trifluoromethyl)imidazo[4,5-c]pyridazine]
≥ 80%: mortality at 200 ppm [8] | mortality at 200 ppm [1] | percent effect (mortality or growth inhibition) at 200 ppm [5] | mortality at 200 ppm [7] | percent effect (mortality or growth inhibition) at 200 ppm [2] | mortality at 200 ppm [3] | mortality at 200 ppm [10]
